Source: article PMC9516332 (Frontiers in Oncology, 2022)

How the values were obtained:
Assay in all cases: Kinase panel profiling at 1 µmol/L (MSA or IMAP), percentage inhibition
Assay type in all cases: biochemical
[1] = target: panel of 255 wild-type kinases (Homo sapiens, UniProt P16234); settings: kinase PDGFRα; 1 µmol/L single concentration; read-out: %-inhibition at 1 µmol/L, PDGFRα
[2] = target: T1, panel of 255 wild-type kinases (Homo sapiens, UniProt Q06418); settings: kinase TYRO3; 1 µmol/L single concentration; read-out: %-inhibition at 1 µmol/L, TYRO3
T1 sequence (Q06418 41-890): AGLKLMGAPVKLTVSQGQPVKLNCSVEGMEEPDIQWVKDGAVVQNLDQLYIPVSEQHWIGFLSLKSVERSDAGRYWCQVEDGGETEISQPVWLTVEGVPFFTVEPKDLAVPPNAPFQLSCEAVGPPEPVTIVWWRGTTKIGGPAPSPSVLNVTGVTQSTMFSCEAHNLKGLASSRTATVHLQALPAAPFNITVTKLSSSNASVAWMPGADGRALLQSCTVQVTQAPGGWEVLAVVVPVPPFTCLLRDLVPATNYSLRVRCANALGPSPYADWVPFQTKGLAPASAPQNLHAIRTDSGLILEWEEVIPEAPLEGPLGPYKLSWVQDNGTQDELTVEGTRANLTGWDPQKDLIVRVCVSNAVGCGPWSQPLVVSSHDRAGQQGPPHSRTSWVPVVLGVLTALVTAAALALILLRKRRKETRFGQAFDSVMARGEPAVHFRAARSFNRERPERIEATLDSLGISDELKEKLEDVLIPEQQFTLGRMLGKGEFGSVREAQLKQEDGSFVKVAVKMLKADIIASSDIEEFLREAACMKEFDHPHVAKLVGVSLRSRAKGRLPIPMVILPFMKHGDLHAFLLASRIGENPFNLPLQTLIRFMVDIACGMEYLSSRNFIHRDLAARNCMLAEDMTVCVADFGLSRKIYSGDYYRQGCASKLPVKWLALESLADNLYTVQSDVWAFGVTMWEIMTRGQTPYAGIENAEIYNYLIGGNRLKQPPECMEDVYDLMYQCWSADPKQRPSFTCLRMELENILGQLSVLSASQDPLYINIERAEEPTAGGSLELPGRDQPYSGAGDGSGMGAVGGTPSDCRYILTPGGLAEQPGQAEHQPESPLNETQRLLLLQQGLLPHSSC

[3] = target: T2, panel of 255 wild-type kinases (Homo sapiens, UniProt P41743); settings: kinase PKCι; 1 µmol/L single concentration; read-out: %-inhibition at 1 µmol/L, PKCι
T2 sequence (P41743 1-596): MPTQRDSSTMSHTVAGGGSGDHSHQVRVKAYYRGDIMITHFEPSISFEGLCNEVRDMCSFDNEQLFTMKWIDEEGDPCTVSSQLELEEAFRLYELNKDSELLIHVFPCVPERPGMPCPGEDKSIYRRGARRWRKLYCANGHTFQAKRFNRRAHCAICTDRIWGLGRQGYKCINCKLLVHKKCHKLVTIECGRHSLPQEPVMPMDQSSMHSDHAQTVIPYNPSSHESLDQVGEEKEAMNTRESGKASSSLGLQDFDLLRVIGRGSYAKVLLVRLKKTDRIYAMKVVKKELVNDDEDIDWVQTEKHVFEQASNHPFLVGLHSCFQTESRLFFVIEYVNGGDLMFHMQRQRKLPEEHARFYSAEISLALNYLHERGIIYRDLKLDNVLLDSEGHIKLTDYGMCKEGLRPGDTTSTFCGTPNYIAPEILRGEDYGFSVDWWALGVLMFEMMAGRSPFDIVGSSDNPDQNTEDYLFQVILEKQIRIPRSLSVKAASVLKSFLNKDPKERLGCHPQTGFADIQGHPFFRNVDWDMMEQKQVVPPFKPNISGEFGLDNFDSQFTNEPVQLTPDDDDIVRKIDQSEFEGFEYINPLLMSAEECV

[4] = target: panel of 255 wild-type kinases (Homo sapiens, UniProt Q15759); settings: p38β; 1 µmol/L single concentration; read-out: %-inhibition, p38β
[5] = target: panel of 255 wild-type kinases (Homo sapiens, UniProt Q9P289); settings: MST4; 1 µmol/L single concentration; read-out: %-inhibition, MST4
[6] = target: T3, panel of 255 wild-type kinases (Homo sapiens, UniProt Q8IW41); settings: MAPKAPK5; 1 µmol/L single concentration; read-out: %-inhibition, MAPKAPK5
T3 sequence (Q8IW41 1-473): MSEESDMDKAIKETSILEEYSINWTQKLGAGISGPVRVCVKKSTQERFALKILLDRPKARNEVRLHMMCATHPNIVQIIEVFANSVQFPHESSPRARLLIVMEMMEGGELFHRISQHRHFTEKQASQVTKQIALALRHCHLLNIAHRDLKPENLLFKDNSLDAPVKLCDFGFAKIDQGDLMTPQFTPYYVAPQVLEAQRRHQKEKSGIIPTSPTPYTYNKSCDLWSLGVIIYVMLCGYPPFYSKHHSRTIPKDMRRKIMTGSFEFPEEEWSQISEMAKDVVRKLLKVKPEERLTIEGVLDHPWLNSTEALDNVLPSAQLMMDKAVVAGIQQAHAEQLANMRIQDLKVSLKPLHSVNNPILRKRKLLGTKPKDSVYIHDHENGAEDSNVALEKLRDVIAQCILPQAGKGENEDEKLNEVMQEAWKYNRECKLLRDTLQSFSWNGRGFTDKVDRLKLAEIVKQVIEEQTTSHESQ

[7] = target: T4, panel of 255 wild-type kinases (Homo sapiens, UniProt Q9HBY8); settings: kinase SGK2; 1 µmol/L single concentration; read-out: %-inhibition at 1 µmol/L, SGK2
T4 sequence (Q9HBY8 1-367): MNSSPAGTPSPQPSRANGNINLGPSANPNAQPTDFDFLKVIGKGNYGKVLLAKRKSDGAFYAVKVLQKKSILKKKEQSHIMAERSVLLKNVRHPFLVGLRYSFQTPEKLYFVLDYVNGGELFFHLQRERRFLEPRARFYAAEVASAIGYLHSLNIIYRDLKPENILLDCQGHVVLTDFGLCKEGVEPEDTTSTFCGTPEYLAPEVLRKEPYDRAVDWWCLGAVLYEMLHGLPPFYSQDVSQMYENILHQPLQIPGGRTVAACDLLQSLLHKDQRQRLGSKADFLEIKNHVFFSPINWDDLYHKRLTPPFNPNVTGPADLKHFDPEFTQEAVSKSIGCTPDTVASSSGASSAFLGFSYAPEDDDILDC

SMILES | inhibition at 1 µM [1] [%] | inhibition at 1 µM [2] [%] | inhibition at 1 µM [3] [%] | inhibition at 1 µM [4] [%] | inhibition at 1 µM [5] [%] | inhibition at 1 µM [6] [%] | inhibition at 1 µM [7] [%]
CO[C@]1(C(=O)N[C@@H](C)c2ccc(-n3cc(F)cn3)nc2)CC[C@H](c2nc(C)cc(Nc3cc(C)[nH]n3)n2)CC1 [pralsetinib] | 99 | 97 | -7.5 | -3.42 | -1.47 | -3.49 | 11
COc1cc2ncnc(Nc3ccc(F)c(Cl)c3)c2cc1NC(=O)/C=C/CN1CCCCC1 [dacomitinib] | 69 | 27 | 31 | 8.44 | 12 | -4.47 | -9
CCn1c(=O)c(-c2cc(NC(=O)Nc3ccccc3)c(F)cc2Br)cc2cnc(NC)cc21 [ripretinib] | – | 9.48 | 21 | 88 | -0.174 | -3.71 | -5
Cc1nc(NC(=O)N2CCC[C@H]2C(N)=O)sc1-c1ccnc(C(C)(C)C(F)(F)F)c1 [alpelisib] | 0.405 | 1.52 | 21 | 1 | -12 | -2.15 | -2
C=CC(=O)N1CCC([C@@H]2CCNc3c(C(N)=O)c(-c4ccc(Oc5ccccc5)cc4)nn32)CC1 [zanubrutinib] | 11 | 5.5 | -8 | 4.54 | -1 | -3.6 | -2.33
O=C(Nc1cnn2ccc(N3CCC[C@@H]3c3cc(F)ccc3F)nc12)N1CC[C@H](O)C1 [larotrectinib] | 2.45 | 5.58 | -6 | -0.0712 | 1.67 | -3 | -4
Cc1cc(Nc2ncnc3ccc(NC4=NC(C)(C)CO4)cc23)ccc1Oc1ccn2ncnc2c1 [tucatinib] | 30 | 6 | -2.24 | -3.42 | 3 | 2 | -4
FC(F)(F)c1ccc(CNc2ccc(Cc3c[nH]c4ncc(Cl)cc34)cn2)cn1 [pexidartinib] | 83 | 10 | 23 | 0.844 | 7 | 0.469 | 8
Cn1cnc2c(F)c(Nc3ccc(Br)cc3F)c(C(=O)NOCCO)cc21 [binimetinib] | 2 | 5.28 | 15 | 0.0465 | 0.492 | -4.73 | -0.294
CN1CCN(c2ccc(C(=O)Nc3n[nH]c4ccc(Cc5cc(F)cc(F)c5)cc34)c(NC3CCOCC3)c2)CC1 [entrectinib] | 29 | 20 | 34 | 7.47 | 6 | 0.65 | -3.18
COC(=O)N[C@@H](C)CNc1nccc(-c2cn(C(C)C)nc2-c2cc(Cl)cc(NS(C)(=O)=O)c2F)n1 [encorafenib] | 4 | 8 | -1.18 | 56 | -4.45 | -4 | 3.5
C[C@H]1Oc2cc(cnc2N)-c2c(nn(C)c2C#N)CN(C)C(=O)c2ccc(F)cc21 [lorlatinib] | 1.74 | 9 | 19 | 1.15 | -8 | 2.32 | 4.34
CCN1CCN(c2ccc(Nc3cc(N(C)C(=O)Nc4c(Cl)c(OC)cc(OC)c4Cl)ncn3)cc2)CC1 [infigratinib] | 59 | 10 | -10 | -1.57 | -10 | -6 | -8
COc1ccc(CN2C3CC2CN(c2ccc(-c4cc(OCC(C)(C)O)cn5ncc(C#N)c45)cn2)C3)cn1 [selpercatinib] | 96 | 99 | -0.803 | -1.85 | 2.38 | -1.78 | 10
Cn1cnc2c(F)c(Nc3ccc(Br)cc3Cl)c(C(=O)NOCCO)cc21 [selumetinib] | 25 | 11 | -6.5 | -1.71 | -0.349 | -3.2 | -5
CCc1nc(C(N)=O)c(Nc2ccc(N3CCC(N4CCN(C)CC4)CC3)c(OC)c2)nc1NC1CCOCC1 [gilteritinib] | 95 | 93 | 28 | 6 | 4.67 | -0.923 | -3.51
CCN1C(=O)N(c2c(F)c(OC)cc(OC)c2F)Cc2cnc3[nH]c(CN4CCOCC4)cc3c21 [pemigatinib] | 69 | 4 | -4 | 6 | 56 | 2.28 | 8
Cn1cc(-c2cc3c(N4CCN(c5ncc([C@@](C)(N)c6ccc(F)cc6)cn5)CC4)ncnn3c2)cn1 [avapritinib] | – | 72 | 0.376 | -2.41 | 7 | 2 | -4.22
